Test results taken from ChEMBL document CHEMBL1123826, “Nitrogen bridgehead compounds. 66. Bronchodilator nitrogen bridgehead compounds with a pyrimidinone moiety” (J Med Chem, 1987).

Assays:
Type in all cases: functional
Conditions in all cases: read-out: ID50 (the source's name)
[1] = tested on: Cavia porcellus; assay: Compound was tested for Bronchodilator activity against acetylcholine-induced spasm in guinea pig by Konzett-Rossler tes; dose administered by intraduodenal route.
[2] = tested on: Cavia porcellus; assay: Compound was tested for Bronchodilator activity against serotonin-induced spasm in guinea pig by Konzett-Rossler test; dose administered by intraduodenal route.
[3] = tested on: Cavia porcellus; assay: Compound was tested for Bronchodilator activity against histamine-induced spasm in guinea pig by Konzett-Rossler test; dose administered by intraduodenal route.

Measured: ED50

CC1CCCCc2nc3c(c(=O)n21)CCCC3 (stereo not drawn)
> 320 µmol/kg: [1] | [2] | [3]
